According to the CheMixHub drug solubility set:

Assay: xn = mol fraction of the nth substance listed, in the solute-free solvent

Nc1cncc(Cl)n1 + CCCO + O
solubility (g/100 g solution)
Settings	278.15 K	283.15 K	288.15 K	293.15 K	298.15 K	303.15 K	308.15 K	313.15 K	318.15 K	323.15 K
x2 = 0.03225	–	–	–	–	–	–	–	–	–	0.0893
x2 = 0.06974	–	–	–	–	–	–	–	–	–	0.208
x2 = 0.1139	0.364	0.43	0.499	0.588	0.686	0.81	0.936	1.08	1.23	1.41
x2 = 0.1666	0.527	0.621	0.722	0.852	0.998	1.18	1.36	1.57	1.79	2.05
x2 = 0.2307	0.638	0.75	0.883	1.04	1.25	1.48	1.73	2.01	2.31	2.65
x2 = 0.3103	0.747	0.891	1.06	1.26	1.51	1.79	2.11	2.46	2.83	3.24
x2 = 0.4117	0.837	1.02	1.22	1.46	1.76	2.11	2.48	2.89	3.33	3.85
x2 = 0.5454	0.928	1.11	1.31	1.61	1.94	2.37	2.82	3.33	3.85	4.44
x2 = 0.7297	0.918	1.12	1.37	1.7	2.09	2.52	3.02	3.56	4.15	4.87

Oc1ccc(Cl)c2cccnc12 + CCCOC(C)=O + CCO
solubility (g/100 g solution)
Settings	278.15 K	283.15 K	288.15 K	293.15 K	298.15 K	303.15 K	308.15 K	313.15 K	318.15 K	323.15 K
x2 = 0.1013	1.48	1.74	2.02	2.4	2.82	3.28	3.89	4.6	5.52	6.43
x2 = 0.2214	1.97	2.29	2.69	3.2	3.76	4.43	5.18	6.1	7.46	8.81
x2 = 0.4035	2.41	2.81	3.3	3.87	4.53	5.41	6.43	7.55	8.8	10.5
x2 = 0.6434	2.74	3.26	3.83	4.52	5.3	6.25	7.27	8.56	9.99	11.7

CCCCOc1ccc(C(=O)CCN2CCCCC2)cc1.Cl + CCO + CCCCCC
solubility (g/100 g solution)
Settings	278.15 K	283.15 K	288.15 K	293.15 K	298.15 K	303.15 K	308.15 K	313.15 K	318.15 K	323.15 K
x2 = 0.1	2.56	2.95	3.35	3.75	4.22	4.75	5.33	5.97	6.73	7.53
x2 = 0.2	5.09	5.71	6.4	7.2	8.01	8.91	9.95	11.1	12.4	13.8
x2 = 0.3	7.84	8.72	9.72	10.8	12	13.4	14.9	16.6	18.4	20.3
x2 = 0.4	10.6	11.8	13.1	14.6	16.2	17.9	19.8	21.8	24	26.4
x2 = 0.5	13.7	15.2	16.8	18.6	20.5	22.6	24.8	27.3	29.9	32.6
x2 = 0.6	16.8	18.8	20.6	22.7	25	27.3	29.9	32.6	35.5	38.5
x2 = 0.7	20.3	22.4	24.6	27	29.4	32	35	37.9	41	44.1
x2 = 0.8	23.9	26.3	28.7	31.4	34.1	36.8	39.8	43	46.3	49.5
x2 = 0.9	27.7	30.4	33	35.8	38.8	41.8	45	48.3	51.6	54.9

CCCCOc1ccc(C(=O)CCN2CCCCC2)cc1.Cl + CCO + CCOC(C)=O
solubility (g/100 g solution)
Settings	278.15 K	283.15 K	288.15 K	293.15 K	298.15 K	303.15 K	308.15 K	313.15 K	318.15 K	323.15 K
x2 = 0.1	4.4	5.22	6.12	7.23	8.43	9.93	11.7	13.6	15.8	18.4
x2 = 0.2	6.73	7.77	8.92	10.3	11.8	13.6	15.6	17.8	20.4	23.2
x2 = 0.3	9.22	10.6	12	13.6	15.3	17.3	19.6	22	24.8	27.7
x2 = 0.4	11.9	13.4	15.1	17	18.9	21.2	23.7	26.4	29.3	32.4
x2 = 0.5	14.7	16.5	18.3	20.4	22.6	25.2	27.9	30.8	33.9	37
x2 = 0.6	17.6	19.7	21.7	24.1	26.5	29.3	32.2	35.2	38.4	41.7
x2 = 0.7	20.8	23.2	25.4	28	30.6	33.5	36.6	39.8	43.1	46.5
x2 = 0.8	24.2	26.8	29.2	32	34.7	37.8	41	44.2	47.6	51
x2 = 0.9	27.9	30.7	33.2	36.1	39	42.2	45.5	48.8	52.2	55.5

CC(=O)OC(c1ccccc1)C(Cl)(Cl)Cl (stereo unspecified) + CCO + O
solubility (g/100 g solution)
Settings	288.15 K	293.15 K	298.15 K	303.15 K	308.15 K	313.15 K	318.15 K	323.15 K	328.15 K
x2 = 0.4	0.237	0.492	0.787	1.3	1.94	2.85	3.79	4.63	5.65
x2 = 0.5	0.569	0.744	1.1	1.98	2.72	3.4	4.43	6.17	8.15
x2 = 0.6	1.11	1.43	1.77	3.24	4.3	5.43	7.34	9.98	13.9
x2 = 0.7	1.91	2.46	3	4.64	6.14	7.47	9.86	13.2	18
x2 = 0.8	2.52	3.05	4.06	6.07	7.63	9.55	12.1	16.4	21.2
x2 = 0.9	3.42	4.13	5.46	7.3	9.27	11.8	15.2	20	26.4

CCCCOc1ccc(C(=O)CCN2CCCCC2)cc1.Cl + CCO + O
solubility (g/100 g solution)
Settings	278.15 K	283.15 K	288.15 K	293.15 K	298.15 K	303.15 K	308.15 K	313.15 K	318.15 K	323.15 K
x2 = 0.1	34.6	37.9	41.1	44.6	48.1	51.6	55.2	58.8	62.2	65.7
x2 = 0.2	33.9	37.1	40.3	43.8	47.1	50.6	54.1	57.7	61.1	64.5
x2 = 0.3	33.4	36.5	39.6	43	46.3	49.8	53.2	56.7	60.1	63.5
x2 = 0.4	33.1	36.1	39.2	42.4	45.7	49	52.4	55.9	59.4	62.7
x2 = 0.5	32.7	35.7	38.8	42	45.1	48.5	51.8	55.3	58.7	62
x2 = 0.6	32.5	35.4	38.4	41.5	44.7	48	51.3	54.7	58.2	61.5
x2 = 0.7	32.2	35.1	38.1	41.2	44.4	47.6	50.9	54.3	57.8	61
x2 = 0.8	32	35	37.9	41	44.1	47.2	50.5	53.9	57.3	60.6
x2 = 0.9	31.9	34.8	37.8	40.7	43.8	47	50.3	53.6	57	60.2

Nc1cncc(Cl)n1 + CCO + O
solubility (g/100 g solution)
Settings	278.15 K	283.15 K	288.15 K	293.15 K	298.15 K	303.15 K	308.15 K	313.15 K	318.15 K	323.15 K
x2 = 0.04165	0.0437	0.053	0.0624	0.075	0.0883	0.106	0.124	0.145	0.168	0.197
x2 = 0.08908	0.071	0.0856	0.101	0.12	0.141	0.17	0.198	0.23	0.267	0.313
x2 = 0.1436	0.11	0.132	0.155	0.185	0.217	0.259	0.302	0.35	0.405	0.476
x2 = 0.2068	0.161	0.193	0.226	0.27	0.316	0.376	0.438	0.508	0.588	0.691
x2 = 0.2812	0.21	0.253	0.299	0.358	0.419	0.501	0.589	0.681	0.792	0.934
x2 = 0.3698	0.277	0.332	0.392	0.469	0.548	0.654	0.765	0.889	1.03	1.23
x2 = 0.4772	0.337	0.404	0.479	0.573	0.677	0.806	0.943	1.1	1.28	1.51
x2 = 0.6101	0.374	0.451	0.544	0.654	0.776	0.918	1.08	1.26	1.48	1.77
x2 = 0.7788	0.399	0.482	0.579	0.7	0.826	0.99	1.16	1.38	1.62	1.94
